Laboratory results: publication PMC6265484, “Homodimerization regulates an endothelial specific signature of the SOX18 transcription factor” (Nucleic Acids Research, 2018)

Molecular target: T1, SOX18 (GFP-SOX18 / SOX18-Cherry-myc homodimer) (Homo sapiens, UniProt P35713)
T1 construct: full-length human SOX18, synthetic gene; N-terminal GFP-tagged and C-terminal Cherry-cMyc-tagged copies co-expressed cell-free in Leishmania tarentolae extract, not purified; homodimer
T1 sequence (P35713 1-384): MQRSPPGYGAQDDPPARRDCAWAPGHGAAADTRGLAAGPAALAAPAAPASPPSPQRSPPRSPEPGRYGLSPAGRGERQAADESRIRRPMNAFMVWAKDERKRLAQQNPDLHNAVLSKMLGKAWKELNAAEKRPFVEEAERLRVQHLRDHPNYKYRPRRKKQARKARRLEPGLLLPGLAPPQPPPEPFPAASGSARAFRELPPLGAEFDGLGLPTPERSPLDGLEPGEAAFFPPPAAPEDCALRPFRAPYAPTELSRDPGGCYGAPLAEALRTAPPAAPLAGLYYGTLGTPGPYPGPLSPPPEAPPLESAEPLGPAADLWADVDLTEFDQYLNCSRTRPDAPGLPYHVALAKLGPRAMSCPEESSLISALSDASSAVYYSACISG
Assay: AlphaScreen disruption of SOX18-SOX18 homodimer in cell-free lysate
Format: biochemical
Details: protein-protein interaction disruption; no IR5 DNA; buffer B (25 mM HEPES, 50 mM NaCl, 0.001% NP40, 0.001% casein); 1 h; 0.7% DMSO

O=C(O)c1c(O)cccc1CCc1ccc2ccccc2c1 [Sm4]
IC50: ~3000 nM
